Assay results taken from patent publication US20040058855A1, “Use of materials having zinc ionophoric behavior” (priority 2002, published 2004).
Where two headings read alike, the source gives them in different places.

Assays:
[1] = system: Malassezia furfur (ATCC 14521); assay: Minimum inhibitory concentration (MIC) against Malassezia furfur in mDixon agar; assay type: cell-based; conditions: for MIC: Malassezia furfur, lowest tested dilution with no visible growth, 30° for 5 days
Procedure: Antifungal activity is assessed microbiologically by a method as described below^1.
^1. The Minimum Inhibitory Concentration is indicative of anti-fungal efficacy. Generally, the lower the value of the composition, the better its anti-fungal efficacy, due to increased inherent ability of the anti-dandruff agent to inhibit the growth of microorganisms.
Dilutions of solubilized anti-microbial active were then added to test tubes containing molten mDixon agar. M. furfur inoculum was added to each tube of molten agar, the tube vortexed, and the contents poured into separate sterile petri dishes. […] The lowest tested dilution of anti-microbial active that yields no growth is defined as the Minimal Inhibitory Concentration (MIC).
1) Malassezia furfur was grown in a 250 ml Erlenmeyer flask containing 100 ml “mDIXON” medium at 320 rpm and 30° C. until turbid.
2) Selected dilutions were prepared using an appropriate dilution series, of the anti-microbial active or combination in solvent, which allowed the sample active to be solubilized prior to addition to the final test agar.
3) 0.25 ml dilutions of anti-microbial active were added to test tubes containing 9.5 ml molten “mDIXON” agar (held at 45° C. in a water bath).
4) 0.25 M. furfur inoculum (adjusted to 5×10^5 cfu/ml by direct count) was added to each test tube of molten agar.
5) Each tube was vortexed, and the contents poured into separate petri dishes.
6) After the agar solidified, the plates inverted and incubated at 30° for 5 days.
7) The plates were then observed for visible M. furfur growth.
Anti-fungal activity of materials having zinc ionophoric behavior was screened by measurement of minimum inhibitory concentrations (MIC's) against Malassezia furfur.

[2] = system: human umbilical vein endothelial cells; assay: Rate of zinc transport into model cells (intracellular zinc, Fura-2 fluorescence); assay type: cell-based; conditions: 1 mM ZPT (0.32 ppm) and an equal weight proportion of zinc salt
Procedure: Measurement of the free zinc levels in cells as a function of time is a direct measure of delivery of zinc across the cell wall/membrane. There are many methods available for assessing this process, many are based on use of intracellular fluorescent dyes. An exemplary method is similar to that reported by Turan et al. (Turan, […]. Am. J. Physiol. 1997, 272, […]-[…]). In this case, […] used, although the procedure is general and can be used with all eukaryotic cells. […] Cells are plated onto a glass cover slip. These immobilized cells are then exposed to a zinc-responsive fluorescent dye such as Fura-2 (Molecular Probes, Inc.) to load the cells with this cell-permeant fluorophore. The cells are then washed to remove dye that is not intracellular. Upon exposure to test treatments, fluorescence is measured as a function of time; in the case of Fura-2, the ratio of fluorescence intensities at 505 nm is taken in response to excitation at 340 and 380 nm. The fluorescence is conveniently measured by using an epifluorescence inverted microscope interfaced to a spectrofluorometer. Fluorescence intensity is proportional to the detected zinc level. […] TPEN) to assure the measured fluorescent response is due to zinc and not an artifact of calcium transport. In the present invention, the method as described herein may be used to identify materials with zinc ionophoric behavior.

[3] = Zinc availability test with metallochromic dye zincon (colour change orange to blue); assay type: physicochemical; conditions: ~30 mg/10 ml water, pH 7-11, zincon in ethanol
Text: Zinc-containing materials (ZCMs) differ with respect to how strongly the zinc ion (Zn^2+) is held by counterions in the crystal lattice. The benefits discussed herein depend upon having available Zn^2+. […] The response is a binary visual assessment of whether or not the color changes indicating zinc-binding.
The method is based on the commercial metallochromic dye zincon. Zincon changes from an orange color to blue upon binding zinc and provides the basis for detecting available Zn^2+: [drawing 20]
The specific procedure involves making a stock solution of zincon in ethanol (˜50 mg/10 ml ethanol). The ZCM is then added to water (˜30 mg/10 ml water) and agitated (pH range should be 7-11). Three to four drops of zincon solution are then added to the ZCM in water, agitated and a visual assessment of color change made.

[4] = ATCC14521, 120 h, read-out: MIC
[5] = to inhibit M. furfur growth, zinc salt alone (MIC) or together with the stated amount of ZPT

Molecule	available Zn^2+ (zincon colour change, binary visual assessment) [3]	other results
Oc1c(Br)cc(Br)c2cccnc12 [5,7-D-Br-8-HQ, 5-7-Bibromo-8-hydroxyquinoline]	–	MIC [1, 4]: 25 µg/mL
CNc1ccc2oc(C[C@H]3O[C@@]4(CC[C@H]3C)O[C@H]([C@H](C)C(=O)c3ccc[nH]3)[C@H](C)C[C@H]4C)nc2c1C(=O)O [A23187, Calcimycin]	–	MIC [1, 4]: > 13 µg/mL
Oc1c(I)cc(I)c2cccnc12 [Diodoquin, 5,7-Diiodo-8-hydroxyquinoline]	–	MIC [1, 4]: 25 µg/mL
Oc1c(I)cc(Cl)c2cccnc12 [Enterovioform, 5-Cl, 7-I-8-hydroxyquinoline]	–	MIC [1, 4]: 25 µg/mL
Cc1ccc2c(Cl)cc(Cl)c(O)c2n1 [Sterosan, 2-Me, 5,7-Dichloro-8-hydroxyquinoline]	–	MIC [1, 4]: 100 µg/mL
CCCCN(CCCC)C(=S)SSC(=S)N(CCCC)CCCC [TBTDS, Tetra-n-butyl thiuram Disulfide]	–	MIC [1, 4]: > 1000 µg/mL
[O-]n1ccccc1=S.[O-]n1ccccc1=S.[Zn+2] [ZPT, zinc salt of 1-hydroxy-2-pyridinethione]	–	Rate of Zinc Transport [2]: 4 min⁻¹; Antifungal activity of ZPT: Amount of zinc salt required [1, 5]: 0 ppm; Antifungal activity of ZPT: Amount of ZPT Required (%) ([1]; to inhibit M. furfur growth, 100% ZPT is equivalent to 8 ppm (MIC of ZPT alone)): 100%
[O]=[Zn] [ZnO, zinc oxide]	have available zinc	Rate of Zinc Transport [2]: ˜0 min^−1; Antifungal activity of ZPT: Amount of zinc salt required [1, 5]: 500 ppm
O=S(=O)([O-])[O-].[Zn+2] [ZnSO4, zinc sulfate]	have available zinc	Rate of Zinc Transport [2]: ˜0 min^−1; Antifungal activity of ZPT: Amount of zinc salt required [1]: 5000 ppm
O=C([O-])CN(CCN(CC(=O)[O-])CC(=O)[O-])CC(=O)[O-].[Na+].[Na+].[Zn+2] [zinc EDTA]	not having available Zn^2+	–
CC(=O)[O-].CC(=O)[O-].[Zn+2] [zinc acetate]	have available zinc	–
N=C(N)NCCC[C@H](N)C(=O)O.[Zn] [zinc arginine]	have available zinc	–
[Cl-].[Cl-].[Zn+2] [zinc chloride]	have available zinc	–
O=C([O-])CC(O)(CC(=O)[O-])C(=O)[O-].O=C([O-])CC(O)(CC(=O)[O-])C(=O)[O-].[Zn+2].[Zn+2].[Zn+2] [zinc citrate]	have available zinc	–
[OH-].[OH-].[Zn+2] [zinc hydroxide]	have available zinc	–
CC(O)C(=O)[O-].CC(O)C(=O)[O-].[Zn+2] (centres unmarked) [zinc lactate]	have available zinc	–
OCC(O)CO.[Zn] [zinc monoglycerolate]	have available zinc	–
O=C([O-])C(=O)[O-].[Zn+2] [zinc oxalate]	have available zinc	–
Lasalocid	–	MIC [1]: >1000 ppm
zinc hexaborate	have available zinc	–
zinc histadine	have available zinc	–
zinc phytate	not having available Zn^2+	–
zinc stearate	have available zinc	–
